# According to US20170280720A1, “ARGININE […] INHIBITORS AND USES THEREOF” (EPIZYME, INC., priority 2014, published 2017):
# Target: T1, human PRMT1 (Homo sapiens, UniProt Q99873)
# T1 construct: GST-tagged PRMT1; made in house; host or cells: High Five insect cells (baculovirus, pFastBacI)
# Experiment: PRMT1 biochemical assay (3H-SAM Flashplate, peptide substrate)
# Conditions: read-out: PRMT1_ IC50
# Outline: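 FLAG-tagged full-length human PRMT1 (0.5 nM, GST-tagged, insect-cell expressed) preincubated 30 min at RT with compound, then biotinylated histone H4 36-50 peptide (20 nM) plus 200 nM 3H-SAM and 1.5 uM SAM in Bicine pH 7.6, 2% DMSO. 3H-methylated peptide captured on streptavidin Flashplate; IC50 from 3/4-parameter fit.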
# T1 sequence (Q99873 with tags, fused parts or gaps): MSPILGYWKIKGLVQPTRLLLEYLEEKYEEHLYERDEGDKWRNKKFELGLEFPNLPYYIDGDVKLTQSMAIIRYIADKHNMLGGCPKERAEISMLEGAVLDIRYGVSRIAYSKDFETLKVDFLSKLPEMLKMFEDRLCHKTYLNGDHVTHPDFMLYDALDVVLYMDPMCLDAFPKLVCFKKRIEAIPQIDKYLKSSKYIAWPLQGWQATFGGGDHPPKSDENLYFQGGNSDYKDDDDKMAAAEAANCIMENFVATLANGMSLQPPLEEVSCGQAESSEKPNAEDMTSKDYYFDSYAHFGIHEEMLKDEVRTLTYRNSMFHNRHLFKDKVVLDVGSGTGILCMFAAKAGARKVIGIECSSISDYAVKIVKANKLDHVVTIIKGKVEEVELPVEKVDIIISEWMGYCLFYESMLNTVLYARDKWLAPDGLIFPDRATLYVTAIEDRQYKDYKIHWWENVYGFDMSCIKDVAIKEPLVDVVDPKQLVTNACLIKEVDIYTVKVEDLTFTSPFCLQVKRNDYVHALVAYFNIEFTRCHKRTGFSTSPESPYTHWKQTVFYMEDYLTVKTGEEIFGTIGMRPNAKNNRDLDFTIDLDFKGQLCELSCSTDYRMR
row,IC50,SMILES
1,19.3 nM,CN(CCN)Cc1cccc(-c2nc(NCc3nccs3)c3cnn(C4CC4)c3n2)c1 [Compound 1]
2,48.5 nM,CC(C)n1ncc2c(C(=O)N[C@@H](C)c3ccccc3)cc(-c3cccc(CN(C)CCN)c3)cc21 [Compound 10]
3,51.6 nM,CNCCN(C)Cc1cccc(-c2cc(NC3CC3)c3cnn(C(C)C)c3n2)c1 [Compound 11]
4,66.2 nM,CC(C)n1cc2c(N)cc(-c3cccc(CN(C)CCN)c3)nc2n1 [Compound 13]
5,69.2 nM,CC(C)n1ncc2c(C(=O)NCc3ccccc3)cc(-c3cccc(CN(C)CCN)c3)cc21 [Compound 14]
6,69.6 nM,Cc1c(C(=O)NCc2ccccc2)cc(-c2cccc(CN(C)CCN)c2)c2cn[nH]c12 [Compound 15]
7,69.6 nM,COc1ccc(Cn2cnc3ccc(-c4ccc(CN(C)CCN)cc4)cc32)cc1 [Compound 16]
8,69.7 nM,CNCCN(C)Cc1cccc(-c2nc(NCc3cc(C)nn3C)c3cnn(C4CC4)c3n2)c1 [Compound 17]
9,72.8 nM,CN(CCN)Cc1cccc(-c2nc(NC3CCOCC3)c3cnn(C(C)(C)C)c3n2)c1 [Compound 18]
10,82.3 nM,CN(CCN)Cc1ccc(-c2ccc3ncn(-c4ccccc4)c3c2)cc1 [Compound 19]
11,85 nM,CNCCN(C)Cc1cccc(-c2cc(Nc3ncc(C)s3)c3cnn(C(C)C)c3n2)c1 [Compound 20]
12,89 nM,CNCCN(C)Cc1cccc(-c2cc(C(=O)NCC3CCOCC3)c3cnn(C4CCC4)c3n2)c1 [Compound 21]
13,95.2 nM,"Cc1nn(C(C)C)c2nc(-c3cccc(CN(C)CCN)c3)cc(N3CCOCC3)c12 [Compound 22, N1-(3-(1-isopropyl-3-methyl-4-morpholino-1H-pyrazolo[3,4-b]pyridin-6-yl)benzyl)-N1-methylethane-1,2-diamine]"
14,97.1 nM,CC(C)n1ncc2c(C(=O)N3CCc4ccccc4C3)cc(-c3cccc(CN(C)CCN)c3)nc21 [Compound 23]
15,97.4 nM,CNCCN(C)Cc1cccc(-c2cc(C(=O)N(C)Cc3ccccc3)c3cnn(C(C)C)c3n2)c1 [Compound 24]
16,105 nM,CC(C)n1ncc2c(C(=O)NCc3ccc(F)cc3)cc(-c3cccc(CN(C)CCN)c3)nc21 [Compound 25]
17,106 nM,CNCCN(C)Cc1cccc(-c2cc(C(=O)NCC3CCOCC3)c3cnn(C4CC4)c3n2)c1 [Compound 26]
18,106 nM,"CNCCN(C)Cc1cccc(-c2nc(NC3CCOCC3)c3cnn(C(C)(C)C)c3n2)c1 [Compound 27, N1-(3-(1-tert-butyl-4-(tetrahydro-2H-pyran-4-ylamino)-1H-pyrazolo[3,4-d]pyrimidin-6-yl)benzyl)-N1,N2-dimethylethane-1,2-diamine]"
19,114 nM,CNCCN(C)Cc1cccc(-c2ccc3ncn(C(C)C)c3c2)c1 [Compound 28]
20,114 nM,CNCCN(C)Cc1cccc(-c2cc(C(=O)NC3CCOCC3)c3cnn(C4CCC4)c3n2)c1 [Compound 29]
21,118 nM,CNCCN(C)Cc1cccc(-c2ccc3ncn(C4CCOCC4)c3c2)c1 [Compound 30]
22,128 nM,CC(C)n1ncc2c(C(=O)N(C)Cc3ccccc3)cc(-c3cccc(CN(C)CCN)c3)nc21 [Compound 31]
23,128 nM,CC(C)n1cnc2cc(-c3cccc(CN(C)CCN)c3)ccc21 [Compound 32]
24,140 nM,CCn1ncc2c(C(=O)N[C@@H](C)c3ccccc3)cc(-c3cccc(CN(C)CCNC)c3)nc21 [Compound 33]
25,145 nM,CNCCN(C)Cc1cccc(-c2ccc3c(c2)ncn3CCOC)c1 [Compound 34]
26,152 nM,CNCCN(C)Cc1cccc(-c2ccc3cn(Cc4ccccc4)nc3n2)c1 [Compound 35]
27,153 nM,CNCCN(C)Cc1cccc(-c2ccc3c(c2)ncn3C(C)C)c1 [Compound 36]
28,154 nM,CC(C)n1ncc2c(C(=O)NCc3c(F)cccc3F)cc(-c3cccc(CN(C)CCN)c3)nc21 [Compound 37]

row,IC50,SMILES
1,159 nM,CNCCN(C)Cc1cccc(-c2cc(C(=O)NCc3ccccc3F)c3cnn(C(C)C)c3n2)c1 [Compound 38]
2,164 nM,CNCCN(C)Cc1cccc(-c2cnc3c(c2)c(Br)nn3CC2CCOCC2)c1 [Compound 39]
3,168 nM,CN(CCN)Cc1cccc(-c2nc(NCc3cccnc3)c3cnn(C4CC4)c3n2)c1 [Compound 40]
4,172 nM,CC(C)n1ncc2c(NC3CC3)cc(-c3cccc(CN(C)CCN)c3)nc21 [Compound 41]
5,185 nM,CNCCN(C)Cc1cccc(-c2cc(C(=O)N3CCc4ccccc4C3)c3cnn(C(C)C)c3n2)c1 [Compound 42]
6,188 nM,CC(C)n1ncc2c(C(=O)N3CCCCC3)cc(-c3cccc(CN(C)CCN)c3)nc21 [Compound 43]
7,189 nM,CNCCN(C)Cc1cccc(-c2cc(C(=O)N[C@@H](C)c3ccccc3)c3cnn(C(C)C)c3n2)c1 [Compound 44]
8,194 nM,CNCCN(C)Cc1cccc(-c2cc(Oc3ccccc3)c3cnn(C(C)C)c3n2)c1 [Compound 45]
9,196 nM,CC(C)n1cnc2cc(-c3ccc(CN(C)CCN)cc3)ccc21 [Compound 46]
10,209 nM,CNCCN(C)Cc1cccc(-c2cc(C(=O)NCc3c(F)cccc3F)c3cnn(C(C)C)c3n2)c1 [Compound 47]
11,783 nM,CNC(=O)Nc1cc(-c2cccc(CN(C)CCN)c2)nc2c1cnn2C(C)C [Compound 126]
12,808 nM,CCC(=O)c1cc(-c2cccc(CN(C)CCNC)c2)nc2c1cnn2C(C)C [Compound 128]
13,821 nM,CS(=O)(=O)N1CCC(Cn2cnc3ccc(-c4ccc(CNCCN)cc4)cc32)CC1 [Compound 129]
14,833 nM,CNCCN(C)Cc1cc(-c2cc(C(=O)NC3CCOCC3)c3cnn(C(C)C)c3n2)ccc1F [Compound 130]
15,841 nM,Cc1ccc(-n2cnc3cc(-c4ccc(CNCCN)cc4)ccc32)cc1 [Compound 131]
16,848 nM,COc1ccc(Cn2cnc3ccc(-c4ccc(CNCCN)cc4)cc32)cc1 [Compound 132]
17,866 nM,CNCCN(C)Cc1cccc(-c2cc(NC(=O)NC3CCOCC3)c3cnn(C(C)C)c3n2)c1 [Compound 133]
18,925 nM,CC(C)n1ncc2c(C(=O)NCc3ccccc3)cc(-c3cccc(CNCCN)c3)cc21 [Compound 134]
19,932 nM,COc1cccc(Cc2nc3ccc(-c4ccc(CNCCN)cc4)cc3n2C(C)C)c1 [Compound 135]
20,934 nM,CC(C)n1ncc2c(C(=O)N[C@@H](C)c3ccccc3)cc(-c3cccc(CN(C)CCN)c3)nc21 [Compound 136]
21,985 nM,CNCCN(C)Cc1cccc(-c2cc(C(=O)NCc3cnn(C)c3C)c3cnn(C(C)C)c3n2)c1 [Compound 137]
22,1040 nM,CNCCN(C)Cc1cccc(-c2cc(NC(=O)NC)c3cnn(C(C)C)c3n2)c1 [Compound 138]
23,1050 nM,CNCCN(C)Cc1cccc(-c2cc(NS(=O)(=O)N(C)C)c3cnn(C(C)C)c3n2)c1 [Compound 139]
24,1110 nM,Cc1cc2cc(-c3ccc(CNCCN)cc3)ccc2[nH]1 [Compound 141]
25,1110 nM,CN(CCN)Cc1cccc(-c2cc(C(=O)NC3CCOCC3)c3cnn(C4CC4)c3n2)c1 [Compound 142]
26,1110 nM,Cc1cccc(CCn2cnc3ccc(-c4ccc(CNCCN)cc4)cc32)c1 [Compound 143]
27,1200 nM,CN(CCN)Cc1cccc(-c2cc(C(=O)NC3CCOCC3)c3cnn(CC(F)(F)F)c3n2)c1 [Compound 144]

row,SMILES,IC50
1,CNCCN(C)Cc1cccc(-c2cc(C(=O)N[C@@H](C)c3ccccc3)c3cn[nH]c3n2)c1 [Compound 12],59.4 nM
